Earlier results as cited in patent publication US9457044B2, “Methods and compositions for wound healing” (CoDa Therapeutics, Inc., priority 2006, dated 2016).

Conditions: cited from earlier work

Row | Molecule | effective dose when applied topically (U.S. Pat. No. 4,861,757) | concentration effective for wound healing by topical application to epithelial tissue (about 50 μl, Sotozono et al. 1995)
1 | PDGF | ≥ 5 ng/mm^2 | 
2 | KGF: keratinocyte growth factor (protein, UniProt P21781 32-194, looked up) Fibroblast growth factor 7: CNDMTPEQMATNVNCSSPERHTRSYDYMEGGDIRVRRLFCRTQWYLRIDKRGKVKGTQEMKNNYNIMEIRTVAVGIVAIKGVESEFYLAMNKEGKLYAKKECNEDCNFKELILENHYNTYASAKWTHNGGEMFVALNQKGIPVRGKKTKKEQKTAHFLPMAIT |  | about 5 μg/ml
